The numbers were not newly measured in US7485688B2, “Water and oil producing composition” (priority 2004, dated 2009), which cites them from elsewhere.

The test system of this series is rats or mice. Particulars: acute oral toxicity in rats or mice.
One may read the LD50 as the dose expected to kill half of the subjects tested. `CC(=O)OC(C)(N=NC(C)(OC(C)=O)c1ccccc1)c1ccccc1` (centres unmarked) [1,1-azobis(1-acetoxy-1-phenylethane)]: the 50% lethal dose (LD50) is ≥ 5000 mg/kg.

In the case of `N#CC1(N=NC2(C#N)CCCCC2)CCCCC1` [1,1′-azobis(2-cyclohexane-1-carbonitrile)], the LD50 was 11800 mg/kg.

`CC(C)CC(C)(C#N)N=NC(C)(C#N)CC(C)C` (centres unmarked) [2,2′-azobis(2,4-dimethylvaleronitrile)]: the LD50 is on record as 6000 mg/kg.

In the case of `CCC(C)(C#N)N=NC(C)(C#N)CC` (centres unmarked) [2,2′-azobis-2-methylbutyronitrile], the median lethal dose (LD50) was 1316 mg/kg.

For `COC(=O)C(C)(C)N=NC(C)(C)C(=O)OC` [dimethyl 2,2′-azobisisobutyrate], the LD50 is on record as 2369 mg/kg.
